Results taken from US20060147397A1, “Composition for preparation for external use on skin and method of using the same” (Kose Corporation, priority 2002, published 2006).

What was measured:
[1] = test system: Murine cultured B16 melanoma cells; assay: Melanin generation/formation suppression test based on cell culture (degree of whiteness); design: key: ++: distinctively stronger whiteness over the reference; +: apparently stronger whiteness over the reference; ±: slightly stronger whiteness over the reference; −: remained unchanged
[2] = test system: Human neonatal fibroblast NB1RGB; assay: Cell activation test based on cell culture (cell proliferation ratio)
Description: Human neonatal fibroblast NB1RGB was used. An appropriate quantity of medium was placed in a 24-well plate, the fibroblast NB1RGB was seeded therein and allowed to stand at 37 ° C. under a carbon dioxide concentration of 5 vol %. Next day, a sample preparation solution was added and mixed therewith so as to adjust the final concentrations of the Cistus ladaniferus L. extract obtained in Example 1, and labdenic acids and methyl esters and ethyl esters thereof obtained in Example 2 to 0 (reference), 5 and 10 μg/mL, and of Panax ginseng extract (product of Maruzen Pharmaceuticals Co., Ltd.), which is a known cell activator, to 0 and 100 μg/mL. The medium was exchanged on the fourth day of culture, and the sample preparation solution was added again. The medium was removed next day, the cells were washed using a phosphate buffer and collected, and evaluated in terms of cell proliferation rate based on comparison of the number of fibroblast NB1RGB cells grown in the individual sample preparation solutions with that of the reference. […]
The number of cells grown in each sample preparation solution was compared with the number of cells of the reference, and cell activation effect was evaluated using cell proliferation ratio as an index. The number of cells was counted using a blood cell counter plate.
Human neonatal fibroblast NB1RGB was used. An appropriate quantity of medium was placed in a 24-well plate, the fibroblast NB1RGB was seeded therein and allowed to stand at 37 ° C. under a carbon dioxide concentration of 5 vol %. Next day, a sample preparation solution was added and mixed therewith so as to adjust the final concentrations of the Cistus ladaniferus L. extract obtained in Example 1, and labdenic acids and methyl esters and ethyl esters thereof obtained in Example 2 to 0 (reference), 5 and 10 μg/mL, and of cactus extract, which is a known cell activator, to 0 and 100 μg/mL. The medium was exchanged on the fourth day of culture, and the sample preparation solution was added again. The medium was removed next day, the cells were washed using a phosphate buffer and collected, and evaluated in terms of cell proliferation rate based on comparison of the number of fibroblast NB1RGB cells grown in the individual sample preparation solutions with that of the reference.

[3] = test system: Murine cultured B16 melanoma cells; assay: Cell survival rate test based on cell culture (crystal violet); conditions: mouse, 5 days, 10 μg/mL
Description: (§1) Murine cultured B16 melanoma cells were used. An appropriate quantity of a 10% FBS-containing MEM medium was placed in two 6-well plates, the B16 melanoma cells were seeded therein and allowed to stand at 37° C. under a carbon dioxide concentration of 5 vol %. Next day, a sample preparation solution was added and mixed therewith so as to adjust the final concentrations of the Cistus ladaniferus L. extract obtained in Example 1, and labdenic acids and methyl esters and ethyl esters thereof obtained in Example 2 to 0 (reference), 5 and 10 μg/mL, and of lily extract (product of Maruzen Pharmaceuticals Co., Ltd.), which is a known whitening agent, to 0 and 100 μg/mL. The medium was exchanged on the fifth day of culture, and the sample preparation solution was added again. The medium was removed next day, the cells were collected from one plate after washing them using a phosphate buffer (pH7), and degree of whitening of the cultured B16 melanoma cells was evaluated according to the criteria shown below.
On the other plate, the cells were fixed with formalin, and dyed by adding an 1% crystal violet solution. Cell survival rates for the individual sample concentrations were measured using a monocellator (product of Olympus Corporation).
Murine cultured B16 melanoma cells were used. An appropriate quantity of a 10% FBS-containing MEM medium was placed in two 6-well plates, the B16 melanoma cells were seeded therein and allowed to stand at 37° C. under a carbon dioxide concentration of 5 vol %. […] The medium was removed next day, the cells were collected from one plate after washing them using a phosphate buffer (pH7), and degree of whitening of the cultured B16 melanoma cells was evaluated according to the criteria shown below.

[4] = test system: Murine cultured B16 melanoma cells; assay: Melanin generation/formation suppression test based on cell culture (degree of whiteness); design: key: ++: distinctively stronger whiteness over the reference; +: apparently stronger whiteness over the reference; ±: slightly stronger whiteness over the reference; −: remained unchanged; remark: listed apart in the source
Description: as §1, with “below. […]” for “below.”
• ++: distinctively stronger whiteness over the reference; • +: apparently stronger whiteness over the reference; • ±: slightly stronger whiteness over the reference; and • −: remained unchanged.
as §1, with “Glycyrrhiza glabra” for “lily”

[5] = final concentration 5 μg/mL + Glycyrrhiza glabra extract 100 μg/mL
[6] = final concentration 10 μg/mL, Glycyrrhiza glabra extract 0 μg/mL
[7] = final concentration 5 μg/mL + Panax ginseng extract 100 μg/mL
[8] = final concentration 5 μg/mL, additional concentration of cactus extract 100 μg/mL, vs reference
[9] = final concentration 10 μg/mL, Panax ginseng extract 0 μg/mL
[10] = final concentration 10 μg/mL, cactus extract 0 μg/mL, vs reference
[11] = final concentration 5 μg/mL + lily extract 100 μg/mL
[12] = final concentration 10 μg/mL, lily extract 0 μg/mL

Row | SMILES | Degree of whiteness [1, 5] | Degree of whiteness [1, 6] | Cell-activation rate [2, 7] [%] | Cell-activation rate [2, 8] [%] | Cell-activation rate [2, 9] [%] | Cell-activation rate [2, 10] [%] | Cell survival rate [3] [%] | Degree of whiteness [4, 11] | Degree of whiteness [4, 12]
1 | CC1=CCC2C(C)(C)CCCC2(C)C1CCC(C)CC(=O)O (stereo not drawn) [Compound 4, labd-7-en-15-oic acid] | ++ | + | 322 | 315 | 130 | 130 | 93 | ++ | +
2 | CC1=C(CCC(C)CC(=O)O)C2(C)CCCC(C)(C)C2CC1 (stereo not drawn) [Compound 1, labd-8-en-15-oic acid] | ++ | + | 329 | 310 | 128 | 128 | 94 | ++ | +
3 | C=C1CCC2C(C)(C)CCCC2(C)C1CCC(C)CC(=O)O (stereo not drawn) [Compound 7, labd-8(17)-en-15-oic acid] | ++ | + | 333 | 170 | 135 | 135 | 98 | ++ | +
